# US20070238793A1, “Structural carotenoid analogs or derivatives for the modulation of systemic and/or target organ redox status” (priority 2005, published 2007)
# What was measured:
# [1] = system: superoxide anion signal from PMA-stimulated human polymorphonuclear leukocytes (PMNs); assay: Direct superoxide anion scavenging by EPR spectroscopy (DEPMPO spin trap) in PMA-stimulated isolated human neutrophils; assay type: cell-based; conditions: millimolar range, water
# Protocol: Leukocyte Isolation and Preparation. Human polymorphonuclear leukocytes (PMNs) were isolated from freshly sampled venous blood of a single volunteer by Percoll density gradient centrifugation as described previously. Briefly, each 10 mL of whole blood was mixed with 0.8 mL of 0.1 M EDTA and 25 mL of saline. The diluted blood was then layered over 9 mL of Percoll at a specific density of 1.080 g/mL. After centrifugation at 400×g for 20 min at 20° C., the plasma, mononuclear cell, and Percoll layers were removed. Erythrocytes were subsequently lysed by addition of 18 mL of ice-cold water for 30 s, followed by 2 mL of 10×PIPES buffer (25 mM PIPES, 110 mM NaCl, and 5 mM KCl, titrated to pH 7.4 with NaOH). […] Afterward, PMNs were counted by light microscopy on a hemocytometer. […]
# EPR Measurements. […] The microwave frequency was measured with a Model 575 microwave counter (EIP Microwave, Inc., San Jose, Calif.). […]
# Instrument settings used in the spin-trapping experiments were as follows: modulation amplitude, 0.32 G; time constant, 0.16 s; scan time, 60 s; modulation frequency, 100 kHz; microwave power, 20 milliwatts; and microwave frequency, 9.76 GHz. The samples were placed in a quartz EPR flat cell, and spectra were recorded. The component signals in the spectra were identified and quantified as reported previously.
# [2] = system: mouse heart (myocardium) redox status; assay: Whole-body time-course PEDRI of TEMPONE nitroxide decay in the myocardial region of treated mice; assay type: in vivo; conditions: 10 mg/kg daily I.V. for 4 days, TEMPONE probe
# Source text: Proton electron double resonance imaging (PEDRI) is a recently developed low-field double magnetic resonance technique (Lurie et al. 2002). The technique uses the Overhauser effect to image the distribution of free radicals in biological samples. Of particular interest is that the technique can be extended to whole animals, allowing systemic redox state analysis as well as individual target organ analysis after therapeutic treatment. The in vivo application of the technique requires a balance between the electron paramagnetic resonance (EPR) irradiation frequency and the magnetic field applied: sufficiently low magnetic field must be utilized that allows penetration of the whole animal, while at the same time limiting nonresonant power deposition in the animal. […]
# After the mice were placed in the PEDRI resonator, a bolus injection of 0.55-0.6 mL (normalized to the body weight of the individual animal) of 100 mM TEMPONE solution in PBS was given over 50-55 s through the tail vein. A series of time-course PEDRI measurements were then acquired every 10-15 s after the injection of the nitroxide probe solution, until the image intensity reached a minimum (i.e., no nitroxide signal could be detected). […]
Compound,aqueous superoxide scavenging profile (in words) [1],rate of nitroxide reduction in the mouse heart compared to untreated control animals [2],"half-time (t) for the decay of the nitroxide signal intensity, myocardial region ([2]; mean±SEM, n=4, untreated 0.49±0.08) [min]"
"3,3′-Diphosphoryloxy-β,ε-carotene sodium salt [compound 9]",slightly increased scavenging,–,–
"CC1=C(/C=C/C(C)=C/C=C/C(C)=C/C=C/C=C(C)/C=C/C=C(C)/C=C/C2=C(C)C(=O)C(OC(=O)CCC(=O)O)CC2(C)C)C(C)(C)CC(OC(=O)CCC(=O)O)C1=O (stereo not drawn) [Cardax™, disodium disuccinate derivative of synthetic astaxanthin]",–,slower mean rate of nitroxide reduction,0.99 ± 0.14
